Assay results: ChEMBL document CHEMBL4825736, “Design, synthesis and biological evaluation of naringenin carbamate derivatives as potential multifunctional agents for the treatment of Alzheimer's disease” (Bioorg Med Chem Lett, 2021)
Calls of active or inactive are those of the source. No cut-off for these calls is given here.

Legend:
[1] = Metal chelating activity assessed as compound-Fe3+ complex formation by measuring decrease in fluorescence intensity by fluorescence emission spectral analysis
[2] = Metal chelating activity assessed as compound-Cu2+ complex formation by fluorescence emission spectral analysis
Acetylcholinesterase = Acetylcholinesterase (Electrophorus electricus, UniProt O42275); test: Inhibition of electric eel AChE by Ellman's method
Acetylcholinesterase, sequence (O42275 whole entry): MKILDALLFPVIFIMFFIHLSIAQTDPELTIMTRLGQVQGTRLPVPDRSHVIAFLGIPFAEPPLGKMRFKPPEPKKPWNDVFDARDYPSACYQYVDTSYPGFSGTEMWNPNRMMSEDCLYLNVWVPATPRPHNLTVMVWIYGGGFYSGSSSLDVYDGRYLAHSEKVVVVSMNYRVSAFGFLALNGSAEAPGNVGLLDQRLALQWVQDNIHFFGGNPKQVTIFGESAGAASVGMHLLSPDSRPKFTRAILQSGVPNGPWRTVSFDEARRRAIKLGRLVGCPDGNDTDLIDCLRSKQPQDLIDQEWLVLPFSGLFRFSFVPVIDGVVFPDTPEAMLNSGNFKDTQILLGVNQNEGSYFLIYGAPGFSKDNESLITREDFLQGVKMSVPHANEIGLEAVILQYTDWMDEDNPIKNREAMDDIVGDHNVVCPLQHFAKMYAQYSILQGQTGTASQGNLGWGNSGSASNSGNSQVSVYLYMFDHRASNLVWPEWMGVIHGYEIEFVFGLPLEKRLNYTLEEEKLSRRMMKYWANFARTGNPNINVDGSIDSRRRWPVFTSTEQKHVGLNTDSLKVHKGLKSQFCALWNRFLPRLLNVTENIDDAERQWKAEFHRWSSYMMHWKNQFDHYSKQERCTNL

[3] = biological target: Amyloid-beta precursor protein (Homo sapiens) (UniProt P05067); test: Inhibition of amyloid beta (1 to 42) (unknown origin) self aggregation at 25 uM by Thioflavin T based fluorometric assay
Amyloid-beta precursor protein (Homo sapiens), sequence (P05067 whole entry): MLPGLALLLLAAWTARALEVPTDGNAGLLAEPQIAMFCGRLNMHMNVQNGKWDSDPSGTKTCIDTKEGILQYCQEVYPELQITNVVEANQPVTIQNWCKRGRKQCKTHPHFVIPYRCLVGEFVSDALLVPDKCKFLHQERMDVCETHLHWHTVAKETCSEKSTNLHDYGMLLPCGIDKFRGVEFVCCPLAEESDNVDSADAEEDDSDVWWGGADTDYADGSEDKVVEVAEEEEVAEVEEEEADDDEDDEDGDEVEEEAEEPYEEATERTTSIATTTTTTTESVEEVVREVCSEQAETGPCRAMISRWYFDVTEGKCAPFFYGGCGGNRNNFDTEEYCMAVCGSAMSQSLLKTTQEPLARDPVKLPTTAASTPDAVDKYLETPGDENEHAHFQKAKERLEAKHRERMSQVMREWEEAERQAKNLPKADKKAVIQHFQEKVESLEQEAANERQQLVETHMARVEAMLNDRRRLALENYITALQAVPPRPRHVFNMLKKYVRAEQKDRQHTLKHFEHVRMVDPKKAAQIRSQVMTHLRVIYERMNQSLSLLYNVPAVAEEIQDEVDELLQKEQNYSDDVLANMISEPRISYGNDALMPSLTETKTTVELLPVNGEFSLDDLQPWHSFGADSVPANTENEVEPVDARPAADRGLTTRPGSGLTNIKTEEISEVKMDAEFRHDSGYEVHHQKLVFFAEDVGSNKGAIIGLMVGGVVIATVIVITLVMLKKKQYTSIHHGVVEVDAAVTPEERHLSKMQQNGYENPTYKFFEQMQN

[4] = Metal chelating activity assessed as compound-Zn2+ complex formation by UV spectrophotometric analysis
Cholinesterase [5] = biological target: T1, Cholinesterase (Equus caballus, UniProt P81908)
T1 sequence (P81908 whole entry): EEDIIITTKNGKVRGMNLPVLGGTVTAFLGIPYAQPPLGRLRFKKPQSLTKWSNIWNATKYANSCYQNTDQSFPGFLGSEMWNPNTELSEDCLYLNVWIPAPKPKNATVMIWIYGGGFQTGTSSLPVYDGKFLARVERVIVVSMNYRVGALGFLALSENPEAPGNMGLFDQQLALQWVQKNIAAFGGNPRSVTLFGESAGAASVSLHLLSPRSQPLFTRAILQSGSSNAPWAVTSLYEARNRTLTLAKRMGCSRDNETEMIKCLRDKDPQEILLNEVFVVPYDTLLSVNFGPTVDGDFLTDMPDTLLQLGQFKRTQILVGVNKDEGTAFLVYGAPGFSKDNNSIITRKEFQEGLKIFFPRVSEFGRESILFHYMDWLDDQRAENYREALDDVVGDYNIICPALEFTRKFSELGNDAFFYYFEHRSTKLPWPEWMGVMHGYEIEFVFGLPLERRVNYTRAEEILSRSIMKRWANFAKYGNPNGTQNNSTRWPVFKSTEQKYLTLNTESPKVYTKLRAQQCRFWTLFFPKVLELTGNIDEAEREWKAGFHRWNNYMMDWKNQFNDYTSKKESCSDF
Description: Inhibition of equine serum BuChE by Ellman's method

[6] = Metal chelating activity assessed as compound-Zn2+ complex formation by measuring new peak formation by fluorescence emission spectral analysis
[7] = Metal chelating activity assessed as compound-Cu2+ complex formation by UV spectrophotometric analysis
[8] = Metal chelating activity assessed as compound-Fe3+ complex formation by UV spectrophotometric analysis
[9] = Metal chelating activity assessed as Cu2+-complex formation by measuring inhibition of Cu2+ induced amyloid beta (1 to 42) aggregation at 25 uM by Thioflavin T based fluorometric assay
[10] = biological target: Cholinesterase (Equus caballus) (UniProt P81908); test: (§1) Mixed type inhibition of equine serum BuChE by double reciprocal analysis; format: cell-free
Cholinesterase (Equus caballus), sequence (P81908 whole entry): as above

Cholinesterase [11] = biological target: T1, Cholinesterase; test: as §1; format: cell-free
[12] = biological target: Cholinesterase (Equus caballus) (UniProt P81908); test: Mixed type inhibition of equine serum BuChE assessed as decrease in Vmax with increase in Km by Lineweaver-Burk plot analysis; format: cell-free
[13] = Antioxidant activity assessed as superoxide anion radical scavenging activity by measuring reduction in cathode current by cyclic voltammetry; format: functional
[14] = Antioxidant activity assessed as superoxide anion radical scavenging activity by measuring reduction in anode current by cyclic voltammetry; format: functional

| Structure (SMILES) | Activity [1] | Activity [2] | IC50 (Acetylcholinesterase) | inhibition [3] | Activity [4] | IC50 (Cholinesterase [5]) | Activity [6] | Activity [7] | Activity [8] | inhibition [9] | Ks [10] | Ki (Cholinesterase [11]) | inhibition [12] | Activity [13] | Activity [14] |
| --- | --- | --- | --- | --- | --- | --- | --- | --- | --- | --- | --- | --- | --- | --- | --- |
| CN(C)C(=O)Oc1ccc(C2CC(=O)c3c(O)cc(OC(=O)N(C)C)cc3O2)cc1 (centres undefined) | Active | inactive | 23.9 µM | 62.4% | Active | 12.2 µM | Active | Active | Active | 53.5% |  |  |  |  |  |
| O=C1CC(c2ccc(O)cc2)Oc2cc(OC(=O)N3CCCCC3)cc(O)c21 (centres undefined) | Active | inactive | 62.5 µM | 36.1% | Active | 0.094 µM | Active | Active | Active | 61.1% | 0.469 µM | 1.6 µM | Active | Active | Active |
| O=C1CC(c2ccc(O)cc2)Oc2cc(OC(=O)N3CCOCC3)cc(O)c21 (centres undefined) | Active | inactive | 12.9 µM | 62.3% |  | 13.7 µM | Active | Active |  | 60.9% |  |  |  |  |  |
| O=C1C[C@@H](c2ccc(O)cc2)Oc2cc(O)cc(O)c21 [NARINGENIN] |  |  | > 100 µM | 44.9% |  | > 100 µM |  |  |  | 69.2% |  |  |  | Active | Active |
| COc1cc(/C=C/C(=O)CC(=O)/C=C/c2ccc(O)c(OC)c2)ccc1O |  |  |  |  |  |  |  |  |  | 73.3% |  |  |  |  |  |
| CCN(C)C(=O)Oc1cc(O)c2c(c1)OC(c1ccc(O)cc1)CC2=O (centres undefined) | Active | inactive | 28.3 µM | 66.5% | Active | 3.42 µM | Active | Active |  | 65.5% |  |  |  |  |  |
